Values belong to the compound of their own block, whether it stands above or below them.
Experiments:
HepG2 [1] = experiment: Antitumor activity against human HepG2 cells assessed as reduction in cell growth incubated for 48 hrs by MTT assay; type: functional, cell-based; details: HepG2, 48 h
PC-3 = experiment: Antitumor activity against human PC-3 cells assessed as reduction in cell growth incubated for 48 hrs by MTT assay; type: functional, cell-based; details: PC-3, 48 h
MCF7 = experiment: Antitumor activity against human MCF7 cells assessed as reduction in cell growth incubated for 48 hrs by MTT assay; type: functional, cell-based; details: MCF7, 48 h
[2] = biological target: Receptor-type tyrosine-protein kinase FLT3 (Homo sapiens) (UniProt P36888); experiment: Inhibition of FLT-3 (unknown origin) at 10 uM relative to control
Receptor-type tyrosine-protein kinase FLT3 (Homo sapiens), sequence (P36888 whole entry): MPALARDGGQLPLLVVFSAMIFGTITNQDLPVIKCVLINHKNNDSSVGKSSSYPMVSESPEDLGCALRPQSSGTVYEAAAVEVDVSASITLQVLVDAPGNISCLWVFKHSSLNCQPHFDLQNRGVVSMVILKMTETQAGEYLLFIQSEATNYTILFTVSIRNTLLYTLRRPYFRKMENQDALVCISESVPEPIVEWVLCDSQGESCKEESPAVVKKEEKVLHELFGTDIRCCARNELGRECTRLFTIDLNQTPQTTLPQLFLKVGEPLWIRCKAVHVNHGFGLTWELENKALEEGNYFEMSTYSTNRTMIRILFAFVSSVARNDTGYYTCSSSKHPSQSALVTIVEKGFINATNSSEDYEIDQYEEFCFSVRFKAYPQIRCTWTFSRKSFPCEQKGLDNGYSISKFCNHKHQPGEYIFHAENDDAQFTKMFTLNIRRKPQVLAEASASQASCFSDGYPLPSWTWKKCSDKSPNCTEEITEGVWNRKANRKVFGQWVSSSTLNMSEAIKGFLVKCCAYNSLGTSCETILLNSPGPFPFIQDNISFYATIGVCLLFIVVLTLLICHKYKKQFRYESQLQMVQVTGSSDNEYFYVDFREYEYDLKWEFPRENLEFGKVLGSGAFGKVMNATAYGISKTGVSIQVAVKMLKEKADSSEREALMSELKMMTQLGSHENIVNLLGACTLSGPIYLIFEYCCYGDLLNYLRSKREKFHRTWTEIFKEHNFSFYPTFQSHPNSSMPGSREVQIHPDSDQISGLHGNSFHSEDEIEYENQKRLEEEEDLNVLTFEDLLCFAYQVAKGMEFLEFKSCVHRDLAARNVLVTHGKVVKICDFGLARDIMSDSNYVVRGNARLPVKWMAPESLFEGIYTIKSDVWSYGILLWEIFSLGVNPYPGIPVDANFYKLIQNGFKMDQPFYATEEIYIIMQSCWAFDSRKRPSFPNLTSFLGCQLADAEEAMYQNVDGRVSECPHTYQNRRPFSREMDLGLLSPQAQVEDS

[3] = biological target: T1, Vascular endothelial growth factor receptor 2 (Homo sapiens, UniProt P35968); experiment: Inhibition of VEGF-induced human VEGFR2 autophosphorylation expressed in HUVEC cells measured after 2 hrs by chemiluminescence assay; type: cell-based
T1 sequence (P35968 whole entry): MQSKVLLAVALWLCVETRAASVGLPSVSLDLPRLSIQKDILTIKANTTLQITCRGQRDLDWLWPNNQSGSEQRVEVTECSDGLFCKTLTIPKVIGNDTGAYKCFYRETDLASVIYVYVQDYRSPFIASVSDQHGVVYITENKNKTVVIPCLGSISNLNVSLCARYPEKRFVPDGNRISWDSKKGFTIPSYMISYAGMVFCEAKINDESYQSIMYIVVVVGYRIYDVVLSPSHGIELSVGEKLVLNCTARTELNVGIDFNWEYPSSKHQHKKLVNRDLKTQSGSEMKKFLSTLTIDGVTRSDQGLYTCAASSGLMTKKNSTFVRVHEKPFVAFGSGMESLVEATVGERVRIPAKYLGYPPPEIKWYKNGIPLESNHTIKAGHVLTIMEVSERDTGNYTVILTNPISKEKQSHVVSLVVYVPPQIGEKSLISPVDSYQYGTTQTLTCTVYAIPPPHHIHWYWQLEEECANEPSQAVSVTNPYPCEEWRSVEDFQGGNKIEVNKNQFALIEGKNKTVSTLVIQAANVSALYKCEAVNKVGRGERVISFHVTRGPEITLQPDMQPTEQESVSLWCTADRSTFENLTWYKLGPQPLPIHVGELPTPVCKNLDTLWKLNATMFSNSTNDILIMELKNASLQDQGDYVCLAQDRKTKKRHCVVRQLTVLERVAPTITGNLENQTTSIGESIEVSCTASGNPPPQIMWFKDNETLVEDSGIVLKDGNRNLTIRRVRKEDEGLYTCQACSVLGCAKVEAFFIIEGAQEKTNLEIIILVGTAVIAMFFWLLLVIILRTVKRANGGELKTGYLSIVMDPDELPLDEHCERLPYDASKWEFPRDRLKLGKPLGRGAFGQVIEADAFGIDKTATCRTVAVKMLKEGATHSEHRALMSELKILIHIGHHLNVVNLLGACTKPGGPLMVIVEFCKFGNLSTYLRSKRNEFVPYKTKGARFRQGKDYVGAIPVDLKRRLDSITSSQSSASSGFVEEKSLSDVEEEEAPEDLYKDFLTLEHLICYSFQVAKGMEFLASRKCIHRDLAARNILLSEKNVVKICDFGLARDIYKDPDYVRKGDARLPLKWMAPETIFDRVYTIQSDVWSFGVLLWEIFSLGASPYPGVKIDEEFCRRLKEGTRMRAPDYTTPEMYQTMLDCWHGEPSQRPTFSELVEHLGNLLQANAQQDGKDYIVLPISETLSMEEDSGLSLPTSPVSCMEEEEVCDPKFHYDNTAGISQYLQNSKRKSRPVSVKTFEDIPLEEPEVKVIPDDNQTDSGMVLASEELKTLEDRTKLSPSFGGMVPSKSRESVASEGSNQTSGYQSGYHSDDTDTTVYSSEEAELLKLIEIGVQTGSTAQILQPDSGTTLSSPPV

HepG2 [4] = experiment: Antitumor activity against human HepG2 cells xenografted in athymic nu/nu mouse assessed as tumor growth inhibition at 100 mg/kg, ip administered once daily relative to control; type: functional; design: scale not given: the % may be the effect or the level left
[5] = biological target: Vascular endothelial growth factor receptor 1 (Homo sapiens, UniProt P17948); experiment: Inhibition of VEGFR1 (unknown origin) by FRET based Z-LYTE kinase assay
Vascular endothelial growth factor receptor 1, sequence (P17948 whole entry): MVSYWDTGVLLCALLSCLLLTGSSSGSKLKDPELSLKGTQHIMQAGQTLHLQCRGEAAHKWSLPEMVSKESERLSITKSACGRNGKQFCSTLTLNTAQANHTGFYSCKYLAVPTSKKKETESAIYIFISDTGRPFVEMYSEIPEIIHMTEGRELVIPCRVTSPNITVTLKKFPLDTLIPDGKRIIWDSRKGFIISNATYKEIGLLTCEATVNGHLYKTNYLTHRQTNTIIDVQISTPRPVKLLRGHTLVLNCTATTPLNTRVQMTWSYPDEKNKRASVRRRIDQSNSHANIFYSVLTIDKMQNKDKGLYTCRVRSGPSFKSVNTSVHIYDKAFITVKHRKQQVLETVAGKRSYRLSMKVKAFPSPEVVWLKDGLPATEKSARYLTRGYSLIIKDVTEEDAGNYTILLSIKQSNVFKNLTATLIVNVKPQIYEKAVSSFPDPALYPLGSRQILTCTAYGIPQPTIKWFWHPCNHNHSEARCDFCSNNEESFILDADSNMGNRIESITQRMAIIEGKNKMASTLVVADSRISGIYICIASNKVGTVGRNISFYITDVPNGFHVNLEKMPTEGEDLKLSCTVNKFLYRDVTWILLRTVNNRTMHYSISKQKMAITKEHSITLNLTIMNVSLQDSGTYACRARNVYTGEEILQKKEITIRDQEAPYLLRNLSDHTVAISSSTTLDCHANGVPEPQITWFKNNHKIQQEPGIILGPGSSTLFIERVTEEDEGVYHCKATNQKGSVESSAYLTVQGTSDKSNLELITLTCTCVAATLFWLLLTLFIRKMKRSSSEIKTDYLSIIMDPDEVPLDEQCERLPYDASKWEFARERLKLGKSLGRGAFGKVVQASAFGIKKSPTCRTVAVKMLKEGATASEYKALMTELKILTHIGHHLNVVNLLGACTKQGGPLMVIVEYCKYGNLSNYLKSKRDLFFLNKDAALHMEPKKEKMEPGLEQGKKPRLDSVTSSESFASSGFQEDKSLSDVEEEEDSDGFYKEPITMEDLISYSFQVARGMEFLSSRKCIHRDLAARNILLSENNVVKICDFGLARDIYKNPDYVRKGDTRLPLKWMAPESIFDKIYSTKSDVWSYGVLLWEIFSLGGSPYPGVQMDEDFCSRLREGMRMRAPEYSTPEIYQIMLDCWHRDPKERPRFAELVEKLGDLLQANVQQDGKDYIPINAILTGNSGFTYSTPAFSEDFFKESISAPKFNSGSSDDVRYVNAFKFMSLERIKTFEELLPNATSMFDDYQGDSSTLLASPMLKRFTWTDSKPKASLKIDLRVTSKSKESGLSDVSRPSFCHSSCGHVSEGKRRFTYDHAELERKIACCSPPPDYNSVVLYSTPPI

[6] = biological target: T1, Vascular endothelial growth factor receptor 2; experiment: Inhibition of VEGFR-2 (unknown origin) using poly-Glu-Ala-Tyr-biotin as substrate pre-incubated for 10 mins followed by substrate addition and measured after 30 mins by HTRF method

IC50 (HepG2 [1]): 24.1 µM
IC50 (PC-3): 40.9 µM
IC50 (MCF7): 33.4 µM
Structure (SMILES): O=C(Nc1ccc(Oc2nc(Cl)nc3ccccc23)cc1)c1cccnc1

inhibition [2]: 91%
IC50 [3]: 11.9 µM
Structure (SMILES): COc1cc2ncnc(Sc3nnc(C)s3)c2cc1OC
Activity (HepG2 [4]): 60%

IC50 [5]: 0.0121 µM
Structure (SMILES): CNC(=O)c1nc(Nc2ccc(NC(=O)Nc3cccc(C)c3)cc2)c2ccccc2n1

IC50 [6]: 0.017 µM
Structure (SMILES): COc1cc2ncnc(Nc3ccncc3C(=O)NCc3cccs3)c2cc1OC

Source: ChEMBL document CHEMBL5625175, “Quinazoline-based VEGFR-2 inhibitors as potential anti-angiogenic agents: A contemporary perspective of SAR and molecular docking studies” (Eur J Med Chem, 2023)
